Results on 18 molecules are retold here after patent US20200277373A1, “ANTI-TREM2 ANTIBODIES AND METHODS OF USE THEREOF” (Denali Therapeutics Inc., priority 2017, published 2020).

Common to all, as to format: cell-based
The target of test [1] is T1, TREM2 (Homo sapiens, UniProt Q9NZC2).
T1 construct: expressed in transfected cells
Briefly: Liposome stimulation pSyk AlphaLISA, HEK293 overexpressing TREM2 and DAP12. The settings on record: liposomes 30% lipid/70% PC (KLA 10%/90%), fold change over HBSS. Here is the method: (§1) Lipids were purchased from Avanti Polar Lipids (Alabaster, Ala.) or Echelon Biosciences (Salt Lake City, Utah). Each screened lipid was resuspended in chloroform and added at 30 mole percent composition to 70 mole percent phosphatidylcholine (PC; 1,2-dioleoyl-sn-glycero-3-phosphocholine, Avanti Polar Lipids). Kdo2-Lipid A was added at a 10 mole percent composition with 90 mole percent PC. Lipid mixes were dried under nitrogen gas and resuspended in HBSS at a concentration of 4 mg/mL. Mixes were vortexed or briefly sonicated until resuspended, then bath sonicated for 1-5 minutes. Liposomes were used for 1-2 weeks. 3 independent batches of liposomes were used in experiments.
(§2) HEK293 cell lines overexpressing TREM2 and DAP12, mutant TREM2-R47H and DAP12, or DAP12 alone were plated in 96-well PDL-coated plates at a density of 40,000 cells per well and cultured for 36-48 hours until 90-100% confluent.
(§3) Cell culture medium was removed and cells were washed once with 200ul HBSS. Liposomes were diluted in HBSS in concentrations ranging from 0.03125 mg/mL to 2 mg/mL, then 50 μl was added to wells in 2-3 technical replicates per plate. Each plate contained HBSS negative control wells, 100% PC liposome control, 5 μg/mL agonist anti-TREM2 positive control (Abnova; Taiwan; # MAB2056), and 5 μg/mL mouse IgG3 isotype control (R&D Systems; Minneapolis, Minn.; # MAB007). Stimuli were incubated with cells for 5 minutes at 37° C., 5% CO2, liposomes were removed, and plates were frozen at −80° C.
(§4) Cells were lysed for 30 minutes to 1 hour on ice in 50 ul/well Cell Lysis Buffer (Cell Signaling Technology; Danvers, Mass.; #9803) with 1 mM PMSF. AlphaLISA SureFire Ultra p-Syk Tyr525/526 assay kit (PerkinElmer, ALSU-PSYK-A10OK) was used to measure pSyk levels in lysate as per manufacturer protocol. 10 μl lysate was added to 384-well OptiPlates (PerkinElmer; #6007290) and an EnVision Multilabel Plate Reader (PerkinElmer) was used to measure AlphaLISA fluorescence.
(§5) PSyk AlphaLISA fluorescence was converted to a log 2 scale. Fluorescence values from liposomes and controls were each subtracted from average fluorescence values from HBSS stimulated wells on the same plate (log 2(liposome)−log 2(HBSSave)=log 2(signal)). The result was converted back to a standard scale to measure fold change (2^log 2(signal)=fold change). Technical replicate fold changes values were averaged to obtain the fold change over background listed (pSyk FOB). Graphs represent values from independent experiments or individual human donors. Results from the screen on the HEK293 overexpressing cell lines are shown in Table 9 below and in FIG. 8A-8B. HEK293 results showing specificity for TREM2 over DAP12 expressed alone can be used to extrapolate which lipid species are likely acting as TREM2 ligands on human macrophages.
For orientation: Alpha assays give light when donor and acceptor beads are brought close together.

The target of test [2] is T2, R47H TREM2 mutant (Homo sapiens, UniProt Q9NZC2, R47H).
T2 construct: expressed in transfected cells
T2 sequence (Q9NZC2 19-230 R47H): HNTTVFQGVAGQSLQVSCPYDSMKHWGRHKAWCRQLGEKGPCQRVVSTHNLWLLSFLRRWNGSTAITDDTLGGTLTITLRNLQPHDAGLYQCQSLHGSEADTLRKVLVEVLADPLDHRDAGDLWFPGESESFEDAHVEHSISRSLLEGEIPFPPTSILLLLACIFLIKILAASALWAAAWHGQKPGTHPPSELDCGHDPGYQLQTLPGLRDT
T2 sequence (O43914 22-113 partner): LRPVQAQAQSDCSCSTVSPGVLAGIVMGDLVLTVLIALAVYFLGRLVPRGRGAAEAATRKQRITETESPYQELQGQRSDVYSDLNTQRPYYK
Briefly: Liposome stimulation pSyk AlphaLISA, HEK293 overexpressing TREM2-R47H and DAP12. The settings on record: liposomes 30% lipid/70% PC (KLA 10%/90%), fold change over HBSS. Here is the method:
as §1, §2, §3, §4, §5

Test [3] concerns the target T3, DAP12 alone (Homo sapiens, UniProt O43914).
T3 construct: expressed in transfected cells
Briefly: Liposome stimulation pSyk AlphaLISA, HEK293 expressing DAP12 alone. To be noted: liposomes 30% lipid/70% PC (KLA 10%/90%), fold change over HBSS. Here is the method: as §1, §2, §3, §4, §5

The subject of test [4] is primary human macrophages. Briefly: Liposome stimulation pSyk AlphaLISA, primary human macrophages. The settings on record: liposomes 30% lipid/70% PC (KLA 10%/90%). Here is the method: as §1
10 mL human blood was obtained from Blood Centers of the Pacific. Monocytes were extracted using RosetteSep Human Monocyte Enrichment Cocktail ([…] Technologies Inc.; Vancouver, BC; #15068) as per manufacturer protocols. Density gradient was performed with Ficoll-Paque Premium (GE Healthcare Life Sciences; Pittsburgh, Pa.; #17-5442-02). Isolated monocytes were resuspended at ˜1-1.3 million cells/mL and cultured for 5-6 days in RPMI, 10% Hyclone Fetal Bovine Serum, and penicillin/streptomycin supplemented with 50 ng/mL human M-CSF (Gibco, # PHC9501) in T175 tissue culture treated flasks. M-CSF was replenished every 2-3 days. Cells were washed once with PBS, 15 mL fresh medium was added, and cells were harvested by scraping. Cells were cultured overnight at a density of 100,000 cells per well on tissue culture treated 96-well plates supplemented with 10-25 ng/mL M-CSF.
as §3, §4, §5

T3 sequence (O43914 22-113): as the sequence (O43914 22-113 partner) above
T1 sequence (Q9NZC2 19-230): as the sequence (Q9NZC2 19-230 R47H) above, with H29R counted along it
T1 sequence (O43914 22-113 partner): as the sequence (O43914 22-113 partner) above

`CCCCCCCCCCCCC/C=C/[C@@H](O)[C@@H](N)CO` [Sphingosine]: the “Human TREM2 (pSyk FOB)” value in test [1] was 0.67 FOB. Also, the “R47H TREM2 mutant (pSyk FOB)” value in test [2] amounted to 0.85 FOB. In test [3], the “DAP12 alone (pSyk FOB)” value worked out at 1.32 FOB. In addition, the “pSyk FOB” value in test [4] is recorded as 0.96 FOB.

For the molecule “Lactosylceramide [Lactosylceramide (LacCer)]”, the “Human TREM2 (pSyk FOB)” value in test [1] is 1.89 FOB. Moreover, the “R47H TREM2 mutant (pSyk FOB)” value in test [2] amounted to 2.06 FOB. Moreover, the “DAP12 alone (pSyk FOB)” value in test [3] amounted to 1.27 FOB. In test [4], the “pSyk FOB” value stood at 1.29 FOB.

As for Cardiolipin [Cardiolipin (CL)], the “Human TREM2 (pSyk FOB)” value in test [1] is 3.79 FOB. In test [2], the “R47H TREM2 mutant (pSyk FOB)” value is 3.31 FOB. In addition, in test [3], the “DAP12 alone (pSyk FOB)” value was found to be 1.26 FOB. The “pSyk FOB” value in test [4] was 2.50 FOB.

`CCCCCCCCCCCCC/C=C/[C@@H](O)[C@@H](N)COP(=O)(O)O` [Sphingosine-1-phosphate (SolP), Sphingosine-1-phosphate]: in test [1], the “Human TREM2 (pSyk FOB)” value came to 2.42 FOB. Besides, the “R47H TREM2 mutant (pSyk FOB)” value in test [2] is recorded as 3.94 FOB. For the same molecule, the “DAP12 alone (pSyk FOB)” value in test [3] turned out to be 1.64 FOB. For the same molecule, the “pSyk FOB” value in test [4] came out at 2.10 FOB.

Regarding Sphingomyelin [Sphingomyelin (SM)], in test [1], the “Human TREM2 (pSyk FOB)” value was 1.74 FOB. The “R47H TREM2 mutant (pSyk FOB)” value in test [2] is on record as 2.09 FOB. In test [3], the “DAP12 alone (pSyk FOB)” value is 1.40 FOB. Besides, the “pSyk FOB” value in test [4] was 1.02 FOB.

Turning to `CC(C)[C@@H](O)CC[C@@H](C)[C@H]1CC[C@H]2[C@@H]3CC=C4C[C@@H](O)CC[C@]4(C)[C@H]3CC[C@]12C` [24(S)hydroxycholesterol (24OHC), 24(S)hydroxycholesterol], in test [1], the “Human TREM2 (pSyk FOB)” value is 4.50 FOB. Moreover, in test [2], the “R47H TREM2 mutant (pSyk FOB)” value was 8.44 FOB. Besides, the “DAP12 alone (pSyk FOB)” value in test [3] was determined as 1.57 FOB. The “pSyk FOB” value in test [4] came to 1.56 FOB.

Consider `CCCCCCCCCCCCC/C=C/[C@@H](O)[C@@H](N)CO[C@@H]1O[C@H](CO)[C@@H](O)[C@H](O)[C@H]1O` [Glucosyl sphingosine (GlcSo), Glucosyl sphingosine], for which, in test [1], the “Human TREM2 (pSyk FOB)” value was 1.34 FOB. Moreover, in test [2], the “R47H TREM2 mutant (pSyk FOB)” value turned out to be 1.27 FOB. Besides, in test [3], the “DAP12 alone (pSyk FOB)” value is listed as 1.31 FOB. For the same molecule, the “pSyk FOB” value in test [4] stood at 2.05 FOB.

For the molecule `CCCCC/C=C\C/C=C\C/C=C\C/C=C\CCCC(=O)OC(CO)CO` [2-Arachidonoylglycerol (2-AG), 2-Arachidonoylglycerol], the “Human TREM2 (pSyk FOB)” value in test [1] stood at 0.68 FOB. In addition, the “R47H TREM2 mutant (pSyk FOB)” value in test [2] is given as 0.84 FOB. In test [3], the “DAP12 alone (pSyk FOB)” value was 1.11 FOB. The “pSyk FOB” value in test [4] was 1.23 FOB.

Regarding Ganglioside GM3, the “Human TREM2 (pSyk FOB)” value in test [1] is 5.82 FOB. In addition, the “R47H TREM2 mutant (pSyk FOB)” value in test [2] is 6.05 FOB. The “DAP12 alone (pSyk FOB)” value in test [3] stood at 1.14 FOB. In addition, in test [4], the “pSyk FOB” value is on record as 1.17 FOB.

For the molecule “Dihydrosphingomyelin [Dihydrosphingomyelin (DhSM)]”, in test [1], the “Human TREM2 (pSyk FOB)” value is on record as 1.59 FOB. Moreover, the “R47H TREM2 mutant (pSyk FOB)” value in test [2] is 1.93 FOB. Moreover, the “DAP12 alone (pSyk FOB)” value in test [3] was determined as 1.40 FOB. Moreover, in test [4], the “pSyk FOB” value turned out to be 0.96 FOB.

Turning to “Cholesteryl ester [Cholesteryl ester (CE)]”, the “Human TREM2 (pSyk FOB)” value in test [1] is reported as 4.24 FOB. Also, the “R47H TREM2 mutant (pSyk FOB)” value in test [2] is reported as 10.90 FOB. Further, the “DAP12 alone (pSyk FOB)” value in test [3] amounted to 1.14 FOB. In addition, the “pSyk FOB” value in test [4] is listed as 1.62 FOB.

“Lysophosphatidylinositol [Lysophosphatidylinositol (LPI)]”: the “Human TREM2 (pSyk FOB)” value in test [1] is 1.12 FOB. The “R47H TREM2 mutant (pSyk FOB)” value in test [2] was 0.32 FOB. Also, the “DAP12 alone (pSyk FOB)” value in test [3] is given as 1.03 FOB. Also, the “pSyk FOB” value in test [4] worked out at 1.61 FOB.

As to Ganglioside GM1, the “Human TREM2 (pSyk FOB)” value in test [1] is given as 4.94 FOB. The “R47H TREM2 mutant (pSyk FOB)” value in test [2] was determined as 4.93 FOB. In addition, the “DAP12 alone (pSyk FOB)” value in test [3] is listed as 0.92 FOB. In addition, the “pSyk FOB” value in test [4] was determined as 1.52 FOB.

In the case of “Oxidized phosphatidylcholine [Oxidized phosphatidylcholine (oxPC)]”, the “Human TREM2 (pSyk FOB)” value in test [1] is listed as 0.81 FOB. Besides, in test [2], the “R47H TREM2 mutant (pSyk FOB)” value amounted to 0.68 FOB. Further, in test [3], the “DAP12 alone (pSyk FOB)” value was found to be 1.26 FOB. Besides, the “pSyk FOB” value in test [4] was found to be 1.25 FOB.

Consider `CC(C)CCC[C@@H](C)[C@H]1CC[C@H]2[C@@H]3CC=C4C[C@@H](O)CC[C@]4(C)[C@H]3CC[C@]12C` [Free cholesterol (FC), Free cholesterol], for which, in test [1], the “Human TREM2 (pSyk FOB)” value is 1.04 FOB. In addition, the “R47H TREM2 mutant (pSyk FOB)” value in test [2] amounted to 2.24 FOB. Besides, in test [3], the “DAP12 alone (pSyk FOB)” value was 1.14 FOB. In addition, the “pSyk FOB” value in test [4] was 1.44 FOB.

Regarding `CCCCCCCC/C=C\CCCCCCCC(=O)OC[C@H](COP(=O)([O-])OCC[N+](C)(C)C)OC(=O)CCCCCCC/C=C\CCCCCCCC` [100% Phosphatidylcholine (PC), 1,2-dioleoyl-sn-glycero-3-phosphocholine, reference compound], the “Human TREM2 (pSyk FOB)” value in test [1] stood at 2.01 FOB. Moreover, the “R47H TREM2 mutant (pSyk FOB)” value in test [2] was 2.27 FOB. Also, in test [3], the “DAP12 alone (pSyk FOB)” value is given as 0.86 FOB. Also, the “pSyk FOB” value in test [4] came to 1.18 FOB.

As to “Phosphatidylserine [Phosphatidylserine (PS)]”, in test [1], the “Human TREM2 (pSyk FOB)” value is listed as 2.42 FOB. Also, the “R47H TREM2 mutant (pSyk FOB)” value in test [2] is listed as 2.65 FOB. For the same molecule, in test [3], the “DAP12 alone (pSyk FOB)” value is recorded as 1.27 FOB. The “pSyk FOB” value in test [4] was 2.09 FOB.

In the case of `C[C@H](CCCC(C)(C)O)[C@H]1CC[C@H]2[C@@H]3CC=C4C[C@@H](O)CC[C@]4(C)[C@H]3CC[C@]12C` [25(S)hydroxycholesterol (25OHC), 25(S)hydroxycholesterol], in test [1], the “Human TREM2 (pSyk FOB)” value stood at 2.61 FOB. The “R47H TREM2 mutant (pSyk FOB)” value in test [2] stood at 6.27 FOB. Further, the “DAP12 alone (pSyk FOB)” value in test [3] is given as 1.20 FOB. The “pSyk FOB” value in test [4] is on record as 1.14 FOB.
